Data as given in patent EP3262942A1, “SELENODIARYLS FOR USE AS MICROBICIDE OR AS MEDICINE” (Evonik Degussa GmbH, priority 2016, dated 2018).

Columns and labels:
[1] = test system: alle getesteten Pathogene; format: cell-based; conditions: 5-50 µg/mL
Candida albicans = assay: Growth test in microtiter plates, HA medium, 24 h, visual evaluation; format: cell-based; parameters: key: +: kein Wachstum im Vergleich zur Wachstumskontrolle; -: Wachstum wie Wachstumskontrolle
Mucor miehei = assay: as above; format: cell-based; parameters: key to Aktivität gegenüber M. miehei: +: kein Wachstum im Vergleich zur Wachstumskontrolle; -: Wachstum wie Wachstumskontrolle
Botrytis cinerea = assay: microbe, parasite or virus in culture; format: cell-based; conditions: for inhibition of growth at 5 µg/mL / inhibition of growth at 10 µg/mL / inhibition of growth at 25 µg/mL / inhibition of growth at 50 µg/mL: Botrytis cinerea, 24 h, read-out: Aktivität gegenüber B. cinerea
Setaria italica = assay: Crop plant growth test, seeds on filter discs, 4 days, visual evaluation; format: in vivo
Procedure: (§1) Testsubstanzen und Kontrollen werden auf Filterrondellen in Mikrotiterplatten (48 well) vorgelegt und das verwendete Lösungsmittel (DMSO) über Lyophilisation entfernt. Anschließend werden ca. 12 Samen pro Vertiefung (Setaria italical Lepidium sativum) zugeben, mit 200 µl sterilem Leitungswasser pro Vertiefung versetzt, mit einem Deckel versehen und in einer feuchten Kammer für 4 Tage im Pflanzenbrutschrank inkubiert (16h-Licht-8h-Dunkel-Rhythmus). Die Auswertung des Tests erfolgt optisch (+: mind. 75 % Wachstumshemmung im Vergleich zur Kontrolle, -: weniger als 75 % Wachstumshemmung im Vergleich zur Kontrolle.

Lepidium sativum = assay: as above; format: in vivo
Procedure: as §1

M. grisea CM = assay: microbe, parasite or virus in culture; format: cell-based, Magnaporthe grisea; conditions: for inhibition of growth at 5 µg/mL / inhibition of growth at 10 µg/mL / inhibition of growth at 25 µg/mL / inhibition of growth at 50 µg/mL: Pyricularia grisea, 24 h, read-out: Aktivität gegenüber M. grisea CM
M. grisea H2O = assay: microbe, parasite or virus in culture; format: cell-based, Magnaporthe grisea; conditions: for inhibition of growth at 5 µg/mL / inhibition of growth at 10 µg/mL / inhibition of growth at 25 µg/mL / inhibition of growth at 50 µg/mL: Pyricularia grisea, H2O, 24 h, read-out: Aktivität gegenüber M. grisea H2O
P. infestans = assay: microbe, parasite or virus in culture; format: cell-based, Phytophthora infestans; conditions: for inhibition of growth at 5 µg/mL / inhibition of growth at 10 µg/mL / inhibition of growth at 25 µg/mL / inhibition of growth at 50 µg/mL: Phytophthora infestans, 24 h, read-out: Aktivität gegenüber P. infestans
Paecilomyces variotii = assay: Growth test in microtiter plates, HA medium, 24 h, visual evaluation; format: cell-based; parameters: key: +: kein Wachstum im Vergleich zur Wachstumskontrolle; -: Wachstum wie Wachstumskontrolle
Penicillium notatum = assay: as above; format: cell-based; parameters: key: +: kein Wachstum im Vergleich zur Wachstumskontrolle; -: Wachstum wie Wachstumskontrolle

SMILES | Aktivität gegenüber C. albicans (Candida albicans; 10µg/mL) | Aktivität gegenüber C. albicans (Candida albicans; 50µg/mL) | Aktivität gegenüber M. miehei (Mucor miehei; 10µg/mL) | Aktivität gegenüber M. miehei (Mucor miehei; 50µg/mL) | Aktivität gegenüber Nutzpflanzen: S. italica (Setaria italica; 10µg/R) | Aktivität gegenüber Nutzpflanzen: S. italica (Setaria italica; 20µg/R) | Aktivität gegenüber Nutzpflanzen: S. italica (Setaria italica; 50µg/R) | Aktivität gegenüber Nutzpflanzen: L. sativum (Lepidium sativum; 10µg/R) | Aktivität gegenüber Nutzpflanzen: L. sativum (Lepidium sativum; 20µg/R) | Aktivität gegenüber Nutzpflanzen: L. sativum (Lepidium sativum; 50µg/R) | Aktivität gegenüber P. variotii (Paecilomyces variotii; 10µg/mL) | Aktivität gegenüber P. variotii (Paecilomyces variotii; 50µg/mL) | Aktivität gegenüber P. notatum (Penicillium notatum; 10µg/mL) | Aktivität gegenüber P. notatum (Penicillium notatum; 50µg/mL) | inhibition of growth at 5 µg/mL (Botrytis cinerea; 5µg/mL) [%] | inhibition of growth at 10 µg/mL (Botrytis cinerea; 10µg/mL) [%] | inhibition of growth at 25 µg/mL (Botrytis cinerea; 25µg/mL) [%] | inhibition of growth at 50 µg/mL (Botrytis cinerea; 50µg/mL) [%] | inhibition of growth at 5 µg/mL (M. grisea CM) [%] | inhibition of growth at 10 µg/mL (M. grisea CM) [%] | further results
Oc1c(F)cc(F)cc1[Se]c1cc(F)cc(F)c1O [Verbindung 25, Bis(3,5-difluoro-2-hydroxyphenyl)selen] | - | + | + | + | - (weniger als 75 % Wachstumshemmung im Vergleich zur Kontrolle) | + (mind. 75 % Wachstumshemmung im Vergleich zur Kontrolle) | - (weniger als 75 % Wachstumshemmung im Vergleich zur Kontrolle) | - (weniger als 75 % Wachstumshemmung im Vergleich zur Kontrolle) | + (mind. 75 % Wachstumshemmung im Vergleich zur Kontrolle) | - (weniger als 75 % Wachstumshemmung im Vergleich zur Kontrolle) | + | - | + | + |  |  |  |  |  |  | Aktivität im Wachstums- und Keimungshemmungstest gegen die getesteten Pathogene [1]: durchgehende Aktivität gegen alle Pathogene; mikrobizide Wirksamkeit gegenüber B. cinerea (Botrytis cinerea): mikrobizide Wirksamkeit; Aktivität gegenüber B. cinerea (Botrytis cinerea; 5µg/mL): + (key: +++: mehr als 75 % der Sporen nicht gekeimt; ++: zwischen 50 und 75 % der Sporen nicht gekeimt; +: zwischen 25 und 50 % der Sporen nicht gekeimt; -: zwischen 0 und 25 % der Sporen nicht gekeimt); Aktivität gegenüber B. cinerea (Botrytis cinerea; 10µg/mL): +++ (key: +++: mehr als 75 % der Sporen nicht gekeimt; ++: zwischen 50 und 75 % der Sporen nicht gekeimt; +: zwischen 25 und 50 % der Sporen nicht gekeimt; -: zwischen 0 und 25 % der Sporen nicht gekeimt); Aktivität gegenüber B. cinerea (Botrytis cinerea; 25µg/mL): +++ (key: +++: mehr als 75 % der Sporen nicht gekeimt; ++: zwischen 50 und 75 % der Sporen nicht gekeimt; +: zwischen 25 und 50 % der Sporen nicht gekeimt; -: zwischen 0 und 25 % der Sporen nicht gekeimt); Aktivität gegenüber B. cinerea (Botrytis cinerea; 50µg/mL): +++ (key: +++: mehr als 75 % der Sporen nicht gekeimt; ++: zwischen 50 und 75 % der Sporen nicht gekeimt; +: zwischen 25 und 50 % der Sporen nicht gekeimt; -: zwischen 0 und 25 % der Sporen nicht gekeimt); Effekt auf S. italica (Setaria italica; […]): deutlichen negativen Effekt; Effekt auf L. sativum (Lepidium sativum; […]): deutlichen negativen Effekt; Aktivität gegenüber M. grisea CM (M. grisea CM; 5µg/mL): +++ (mehr als 75 % der Sporen nicht gekeimt); Aktivität gegenüber M. grisea CM (M. grisea CM; 10µg/mL): +++ (mehr als 75 % der Sporen nicht gekeimt); Aktivität gegenüber M. grisea CM (M. grisea CM; 25µg/mL): +++ (mehr als 75 % der Sporen nicht gekeimt); Aktivität gegenüber M. grisea CM (M. grisea CM; 50µg/mL): +++ (mehr als 75 % der Sporen nicht gekeimt); Aktivität gegenüber M. grisea H2O (M. grisea H2O; 5µg/mL): +++ (mehr als 75 % der Sporen nicht gekeimt); Aktivität gegenüber M. grisea H2O (M. grisea H2O; 10µg/mL): +++ (mehr als 75 % der Sporen nicht gekeimt); Aktivität gegenüber M. grisea H2O (M. grisea H2O; 25µg/mL): +++ (mehr als 75 % der Sporen nicht gekeimt); Aktivität gegenüber M. grisea H2O (M. grisea H2O; 50µg/mL): +++ (mehr als 75 % der Sporen nicht gekeimt); Aktivität gegenüber P. infestans (P. infestans; 5µg/mL): +++ (mehr als 75 % der Sporen nicht gekeimt); Aktivität gegenüber P. infestans (P. infestans; 10µg/mL): +++ (mehr als 75 % der Sporen nicht gekeimt); Aktivität gegenüber P. infestans (P. infestans; 25µg/mL): +++ (mehr als 75 % der Sporen nicht gekeimt); Aktivität gegenüber P. infestans (P. infestans; 50µg/mL): +++ (mehr als 75 % der Sporen nicht gekeimt)
CC(C)(C)c1cc([Se]c2cc(C(C)(C)C)cc(C(C)(C)C)c2O)c(O)c(C(C)(C)C)c1 [Verbindung 14, Bis(3,5-di-tert-butyl-2-hydroxyphenyl)selen] | - | - | - | - | - (weniger als 75 % Wachstumshemmung im Vergleich zur Kontrolle) | - (weniger als 75 % Wachstumshemmung im Vergleich zur Kontrolle) | - (weniger als 75 % Wachstumshemmung im Vergleich zur Kontrolle) | - (weniger als 75 % Wachstumshemmung im Vergleich zur Kontrolle) | - (weniger als 75 % Wachstumshemmung im Vergleich zur Kontrolle) | - (weniger als 75 % Wachstumshemmung im Vergleich zur Kontrolle) | - | - | - | - | 0 to 25 | 0 to 25 | 0 to 25 | 0 to 25 | 0 to 25 | 0 to 25 | Aktivität im Wachstums- und Keimungshemmungstest gegen die getesteten Pathogene [1]: weder im Wachstums- noch im Keimungshemmungstest im verwendeten Konzentrationsbereich eine entsprechende Aktivität; inhibition of growth at 25 µg/mL (M. grisea CM): 0 to 25%; inhibition of growth at 50 µg/mL (M. grisea CM): 0 to 25%; inhibition of growth at 5 µg/mL (M. grisea H2O): 0 to 25%; inhibition of growth at 10 µg/mL (M. grisea H2O): 0 to 25%; inhibition of growth at 25 µg/mL (M. grisea H2O): 0 to 25%; inhibition of growth at 50 µg/mL (M. grisea H2O): 0 to 25%; inhibition of growth at 5 µg/mL (P. infestans): 0 to 25%; inhibition of growth at 10 µg/mL (P. infestans): 0 to 25%; inhibition of growth at 25 µg/mL (P. infestans): 0 to 25%; inhibition of growth at 50 µg/mL (P. infestans): 0 to 25%
Cc1cc(Br)c(O)c([Se]c2cc(C)cc(Br)c2O)c1 [Verbindung 23, Bis(3-brom-2-hydroxy-5-methylphenyl)selen] | - | - | - | - | - (weniger als 75 % Wachstumshemmung im Vergleich zur Kontrolle) | - (weniger als 75 % Wachstumshemmung im Vergleich zur Kontrolle) | - (weniger als 75 % Wachstumshemmung im Vergleich zur Kontrolle) | - (weniger als 75 % Wachstumshemmung im Vergleich zur Kontrolle) | - (weniger als 75 % Wachstumshemmung im Vergleich zur Kontrolle) | - (weniger als 75 % Wachstumshemmung im Vergleich zur Kontrolle) | - | - | - | - | 0 to 25 | 0 to 25 | 0 to 25 | 0 to 25 | > 75 | > 75 | inhibition of growth at 25 µg/mL (M. grisea CM): > 75%; inhibition of growth at 50 µg/mL (M. grisea CM): > 75%; inhibition of growth at 5 µg/mL (M. grisea H2O): 0 to 25%; inhibition of growth at 10 µg/mL (M. grisea H2O): 25 to 50%; inhibition of growth at 25 µg/mL (M. grisea H2O): > 75%; inhibition of growth at 50 µg/mL (M. grisea H2O): > 75%; inhibition of growth at 5 µg/mL (P. infestans): 0 to 25%; inhibition of growth at 10 µg/mL (P. infestans): 0 to 25%; inhibition of growth at 25 µg/mL (P. infestans): 0 to 25%; inhibition of growth at 50 µg/mL (P. infestans): 0 to 25%; Wirksamkeit gegenüber P. infestans (P. infestans): keine Wirkung
Cc1c(Cl)cc(C(C)C)c(O)c1[Se]c1c(C)c(Cl)cc(C(C)C)c1O [Verbindung 21, Bis(3-chlor-6-hydroxy-5-isopropyl-2-methylphenyl)selen] | - | - | - | - | - (weniger als 75 % Wachstumshemmung im Vergleich zur Kontrolle) | - (weniger als 75 % Wachstumshemmung im Vergleich zur Kontrolle) | - (weniger als 75 % Wachstumshemmung im Vergleich zur Kontrolle) | - (weniger als 75 % Wachstumshemmung im Vergleich zur Kontrolle) | - (weniger als 75 % Wachstumshemmung im Vergleich zur Kontrolle) | - (weniger als 75 % Wachstumshemmung im Vergleich zur Kontrolle) | - | - | - | - | 0 to 25 | 0 to 25 | 0 to 25 | 0 to 25 | 50 to 75 | > 75 | inhibition of growth at 25 µg/mL (M. grisea CM): > 75%; inhibition of growth at 50 µg/mL (M. grisea CM): > 75%; inhibition of growth at 5 µg/mL (M. grisea H2O): 25 to 50%; inhibition of growth at 10 µg/mL (M. grisea H2O): > 75%; inhibition of growth at 25 µg/mL (M. grisea H2O): > 75%; inhibition of growth at 50 µg/mL (M. grisea H2O): > 75%; inhibition of growth at 5 µg/mL (P. infestans): 0 to 25%; inhibition of growth at 10 µg/mL (P. infestans): 0 to 25%; inhibition of growth at 25 µg/mL (P. infestans): 0 to 25%; inhibition of growth at 50 µg/mL (P. infestans): 0 to 25%; Wirksamkeit gegenüber P. infestans (P. infestans): keine Wirkung
